Results taken from patent US9969741B2, “Pyrazolotriazines as inhibitors of nucleases” (MASARYKOVA UNIVERZITA, priority 2014, dated 2018).

Key:
[1] = target: T1, MUS81/EME1 (Homo sapiens, UniProt Q96NY9); test: Nuclease inhibition assay, MUS81/EME1 (3′ flap fluorescent DNA substrate, gel readout); assay type: biochemical; conditions: 5 nM enzyme, 5 nM 3′ flap substrate, 15 min at 30° C.
T1 sequence (Q96NY9 1-551): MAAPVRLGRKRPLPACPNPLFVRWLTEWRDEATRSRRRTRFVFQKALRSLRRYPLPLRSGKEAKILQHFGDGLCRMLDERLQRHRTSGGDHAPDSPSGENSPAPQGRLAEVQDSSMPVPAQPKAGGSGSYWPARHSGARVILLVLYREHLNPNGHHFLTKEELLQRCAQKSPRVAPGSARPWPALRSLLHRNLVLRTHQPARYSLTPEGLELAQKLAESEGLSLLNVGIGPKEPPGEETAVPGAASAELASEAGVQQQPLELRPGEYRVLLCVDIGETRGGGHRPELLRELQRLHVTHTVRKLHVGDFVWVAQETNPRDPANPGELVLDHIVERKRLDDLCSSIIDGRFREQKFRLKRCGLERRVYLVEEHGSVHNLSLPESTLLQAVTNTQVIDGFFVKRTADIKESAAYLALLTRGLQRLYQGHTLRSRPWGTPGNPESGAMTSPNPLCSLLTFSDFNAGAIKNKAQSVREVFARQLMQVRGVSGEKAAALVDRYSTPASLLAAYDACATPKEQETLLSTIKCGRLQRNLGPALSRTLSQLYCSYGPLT
T1 sequence (Q96AY2 1-570 partner): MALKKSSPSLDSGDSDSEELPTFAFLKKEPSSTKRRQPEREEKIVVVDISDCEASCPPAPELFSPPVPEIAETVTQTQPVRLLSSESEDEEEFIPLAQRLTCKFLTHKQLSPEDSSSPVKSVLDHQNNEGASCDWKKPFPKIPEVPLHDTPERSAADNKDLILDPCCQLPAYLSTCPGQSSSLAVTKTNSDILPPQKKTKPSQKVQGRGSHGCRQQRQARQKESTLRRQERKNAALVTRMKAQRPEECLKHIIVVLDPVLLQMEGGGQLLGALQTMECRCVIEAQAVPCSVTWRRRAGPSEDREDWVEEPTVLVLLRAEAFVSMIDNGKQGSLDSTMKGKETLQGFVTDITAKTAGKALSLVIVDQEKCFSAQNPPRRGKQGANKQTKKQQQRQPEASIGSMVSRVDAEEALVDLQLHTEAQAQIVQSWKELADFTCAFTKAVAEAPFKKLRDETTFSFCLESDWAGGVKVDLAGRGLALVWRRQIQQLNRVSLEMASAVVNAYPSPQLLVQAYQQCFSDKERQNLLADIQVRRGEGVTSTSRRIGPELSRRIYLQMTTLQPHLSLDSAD
From the text: (§1) In vitro assays were used for the determination of compound's IC50 values for inhibition of individual nucleases, i.e., MUS81/EME1, FEN1, EXO1, and MRE11. To generate IC50 values, concentration of compound was plotted against relative nuclease activity (in %). The dose-response curves were generated from inhibition data, from 5 point serial dilutions of inhibitory compounds, each in triplicate and fitted to a standard sigmoid curve. IC50 values were derived by standard nonlinear regression analysis.
(§2) All tested compounds were diluted in 100% DMSO (dimethylsulfoxide) to prepare working stocks with different concentrations. To keep the DMSO concentration constant in every reaction, always 0.5 μl of the compound stock was added to the reaction buffer. The reaction buffer differs depending on the enzyme tested. Also concentration of the compounds in the reaction depends on the particular enzyme, since the inhibitory effect of the compounds vary between the enzymes. Nevertheless, always doubling dilutions in the range 200-0.8 μM was used. The compound was added as the first component in the reaction buffer, followed by the enzyme addition. Short (15 minutes) pre-incubation step followed before the reaction was initiated by addition of DNA substrate (5 nM).
As a negative control, DNA substrate specific for each particular enzyme without the addition of the enzyme and the compound was used. The positive control contained all components of the reaction, except the compound of interest. However, to compensate for solvent effects, DMSO (at a final concentration of 2.5%) was included in the reaction.
(§3) For this experiment we prepared short fluorescently labeled oligonucleotide-based DNA substrates with specific structures reflecting the biochemical activities of tested individual nucleases (Table 1). These substrates were prepared by annealing of synthetic oligonucleotides purchased from VBC Biotech. Composition of each substrate is indicated below the table; the corresponding oligonucleotides were combined in equimolar ratios. For visualization, each substrate was labeled by fluorescent dye (fluorescein), which can be detected in the gel using appropriate imaging system (FLA-9000, Fuji) with filters for particular wavelengths (excitation: 485 nm, emission: 535 nm).
Nuclease assays were performed in reaction buffer specific for particular enzyme: MUS81/EME1 (50 mM Tris pH=7.5, 5 mM MgCl2, 1 mM DTT a 100 μg/ml BSA), MRE11 (30 mM Bis-Tris pH=7.0, 50 μg/ml BSA, 1 mM DTT a 250 μM MnCl2), EXO1 and FEN1 (50 mM Tris pH=7.5, 1 mM MgCl2, 1 mM DTT a 100 μg/ml BSA). The individual reactions were prepared by mixing with highly purified enzyme (MUS81/EME1 (5 nM), MRE11 (5 nM), EXO1 (5 nM) or FEN1 (10 nM); purification protocols described below), and different concentration of inhibitor (mentioned above) in corresponding reaction buffer. The final volume of the reaction was 20 μl. After short pre-incubation (15 minutes at room temperature), the reaction was initiated by addition of 5 nM of corresponding fluorescently labeled DNA substrate (3′ flap for MUS81/EME1, 5′ flap for MRE11 and FEN1, 3′ OH for EXO1; see FIG. 1) and incubated for 15 minutes at 30° C. Next, the reaction was stopped and deproteinized by addition of 2 μl of stop buffer, containing 0.1% SDS and 500 μg/ml proteinase K, and incubated for additional 5 minutes at 30° C. Then the loading dye, containing glycerol (60% glycerol, 10 mM Tris pH=7.4, 60 mM EDTA a 0.1% Orange G), was added to each reaction ( 1/10 of the reaction volume), and the whole mixture was subjected to electrophoresis in 10% polyacrylamide native gel (110 V, 40 min, 1× TBE). Fluorescently labeled DNA was detected by FLA-9000 scanner (Fuji) and the result was evaluated using Multi-Gauge V3.2 software (Fuji).
The Mus81/Eme1 expression construct was a kind gift from Dr. Steve West (Cancer Research UK). Briefly, the nuclease complex was purified as follows. […]

[2] = target: FEN1 (Homo sapiens, UniProt P39748); test: Nuclease inhibition assay, FEN1 (5′ flap fluorescent DNA substrate, gel readout); assay type: biochemical; conditions: 10 nM enzyme, 5 nM 5′ flap substrate, 15 min at 30° C.
Chain of FEN1 (P39748 whole entry, species assumed): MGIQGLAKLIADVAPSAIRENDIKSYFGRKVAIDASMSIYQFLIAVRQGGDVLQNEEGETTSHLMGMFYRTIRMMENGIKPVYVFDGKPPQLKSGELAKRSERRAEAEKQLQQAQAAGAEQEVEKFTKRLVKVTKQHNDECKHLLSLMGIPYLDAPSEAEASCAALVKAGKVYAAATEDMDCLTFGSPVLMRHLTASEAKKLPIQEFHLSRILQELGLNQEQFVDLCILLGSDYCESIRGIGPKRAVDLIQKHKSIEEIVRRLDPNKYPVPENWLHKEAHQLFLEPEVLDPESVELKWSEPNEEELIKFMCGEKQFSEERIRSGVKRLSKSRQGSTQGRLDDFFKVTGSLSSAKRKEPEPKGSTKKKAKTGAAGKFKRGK
From the text: as §1
as §2, with “Short (15 minutes) pre-incubation step followed before the reaction was initiated by addition of DNA substrate (5 nM).” left out
as §3, with “These substrates were prepared by annealing of synthetic oligonucleotides purchased from VBC Biotech. Composition of each substrate is indicated below the table; the corresponding oligonucleotides were combined in equimolar ratios.” left out
Nuclease assays were performed in reaction buffer specific for particular enzyme: MUS81/EME1 (50 mM Tris pH=7.5, 5 mM MgCl2, 1 mM DTT a 100 μg/ml BSA), MRE11 (30 mM Bis-Tris pH=7.0, 50 μg/ml BSA, 1 mM DTT a 250 μM MnCl2), EXO1 and FEN1 (50 mM Tris pH=7.5, 1 mM MgCl2, 1 mM DTT a 100 μg/ml BSA). […] Fluorescently labeled DNA was detected by FLA-9000 scanner (Fuji) and the result was evaluated using Multi-Gauge V3.2 software (Fuji). […]

| Compound | IC50 [1] | IC50 [2] |
| --- | --- | --- |
| CCc1nn2c(N)c(-c3nc4ccccc4[nH]3)nnc2c1-c1ccc(F)cc1 [Preparative Example 5A] | < 10 µM | > 50 µM |
| Nc1c(-c2nc3ccccc3[nH]2)nnc2cc(-c3ccccc3)nn12 [Preparative Example 5C] | < 50 µM | > 50 µM |
| Nc1c(-c2nc3ccccc3[nH]2)nnc2cc(-c3cccc4ccccc34)nn12 [Preparative Example 5K] | < 10 µM | > 50 µM |
